In patent EP0609289B1, “IMIDAZOLE DERIVATIVES AND PHARMACEUTICAL COMPOSITIONS CONTAINING THE SAME” (THE UPJOHN COMPANY, priority 1991, dated 1993):

How the values were obtained:
[1] = molecular target: Angiotensin II receptor; assay: In vitro angiotensin II mesenteric artery receptor binding assay (test 1); settings: rat mesenteric artery membrane fraction, 0.2 nM 125I-Ang II, 22°C, 90 minutes
How it was run: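 Rat mesenteric artery membranes ([…] protein equivalent) incubated with 0.2 nM ^125I-Ang II and compound, 90 min at 22°C, pH 7.2 Tris buffer. Bound radioactivity counted after filtration; nonspecific binding defined with 1 µM unlabeled angiotensin II.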

[2] = system: angiotensin II constriction in an isolated rabbit thoracic aorta; assay: Antagonism to angiotensin II constriction in an isolated rabbit thoracic aorta (test 3); settings: test compound 10^-6 M for 20 minutes
Procedure: 3) Antagonism to angiotensin II constriction in an isolated rabbit thoracic aorta
A rectangular strip-like sample of thoracic aorta isolated from an anaesthetized rabbit was prepared, and the sample was suspended at 2.0 g of loaded tension in a Magnus tube filled with Krebs-Henseleitoid nutrition solution which was well aerated with 95% O2-5% CO2, and the constriction tension was measured using an isometric transducer. After the tension of the sample at rest became stable, accumulative administration of angiotensin II was carried out to obtain a concentration-action curve. Thereafter, the sample was washed with the same nutrition solution, then treated with test compound (10^-6 M) for 20 minutes to obtain again a concentration-action curve of angiotensin II. The results were obtained as followed: generated maximum tension at the first accumulative administration of angiotensin II was regarded as 100 %, and the 50 % effective concentration (ED50) was obtained in the presence or absence of the test compound, and pA2 value was calculated according to the following equations: • pA2=-logKB KB=C/{(A'/A)-1} • C; concentration of the test compound (M) • A'; ED50 in the presence of test compound (M) • A; ED50 in the absence of the test compound (M)

[3] = system: blood pressure increase by angiotensin II; assay: Antagonism to blood pressure increase by angiotensin II in a spine destroyed (pithed) rat (test 4); type: in vivo, Wistar rat; settings: intravenous administration, 3µg/kg angiotensin II, read-out: Inhibition of blood pressure increase by angiotensin II in pithed rat ED50(mg/kg) (test 4)
From the text: 4) Antagonism to blood pressure increasing by angiotensin II in a spine destroyed rat
Wistar rat anaesthetized with pentobarbital was fixed at dorsal position, and a cannula for measuring blood pressure was inserted into sinister arteria carotis communis, and a cannula for administration of the test compound into dexter external jugular vein and a cannula for administration of angiotensin II into sinister external jugular vein, ambilateral nervus vagus was cut, and artificial respiration was carried out. A thin bar made of metal was stabbed into spinal column through sinister orbita to destroy spine. Blood pressure was recorded on polygraph via pressure transducer from an arterial cannula. After blood pressure was stable for more than 30 min., 3µg/kg of angiotensin II was administered intravenously four times every 15 min, and every 5 min. before the administration of angiotensin II from the second administration onward, a solvent, a lower dose of the test compound, and a higher dose of the test compound were administered intravenously in this order to observe the blood pressure increasing response by angiotensin II. ED50 values were calculated from the inhibiting rate when the first blood pressure increase by angiotensin II was regarded as 100 %.

SMILES | IC50 [1] [nM] | Inhibition of rabbit aorta constriction pA2 (test 3) [2] | ED50 [3] [mg/kg]
CCCc1nc2c(=O)n3n(c(=O)c2n1Cc1ccc(-c2ccccc2-c2nn[nH]n2)cc1)CCCC3 [Compound No. 46, 2-n-propyl-5,6,7,8-tetrahydro-1-[(2'-(1H-tetrazol-5-yl)biphenyl-4-yl)methyl]-1H-1,3,4a,8a-tetraza-cyclopentanaphthalene-4,9-dione] | 3.3 | 8.95 | 
CCCc1nc2c(n1Cc1ccc(-c3ccccc3-c3nn[nH]n3)cc1)C(=O)N1C3CCC(CC3)N1C2 [Compound No. 438, 5,8-ethano-2-n-propyl-5,6,7,8-tetrahydro-1-[{2'-(1H-tetrazol-5-yl)biphenyl-4-yl}methyl],1H,4H-1,3,4a,8a-tetraza-cyclopentanaphthalene-9-one] | 7.5 | 8.57 | 0.37
CCCc1nc2c(=O)n3n(c(=O)c2n1Cc1ccc(-c2ccccc2-c2nn[nH]n2)cc1)C1CCC3CC1 [Compound No. 108, 5,8-ethano-2-n-propyl-5,6,7,8-tetrahydro-1-[(2'-(1H-tetrazol-5-yl)biphenyl-4-yl)methyl]-1H-1,3,4a,8a-tetraza-cyclopentanaphthalene-4,9-dione] | 1.9 | 9.53 | 0.069
CCCc1nc2c(=O)n3n(c(=O)c2n1Cc1ccc(-c2ccccc2-c2nn[nH]n2)cc1)C1CCC3(C(=O)NC(C)(C)C)CC1 [Compound No. 235, 4,9-dioxo-5,8-ethano-2-n-propyl-5,6,7,8-tetrahydro-1-[{2'-(1H-tetrazol-5-yI)biphenyl-4-yl}methyl]-1H-1,3,4a,8a-tetraza-cyclopentanaphthalene-5-carboxy-N-t-butylamide] | 21 | 9.62 | 0.07
CCCc1nc2c(=O)n3n(c(=O)c2n1Cc1ccc(-c2ccccc2-c2nn[nH]n2)cc1)C(C)CCC3C(=O)O (stereo not shown) [Compound No. 111, 4,9-dioxo-8-methyl-2-n-propyl-5,6,7,8-tetrahydro-1-[(2'-(1H-tetrazol-5-yl)biphenyl-4-yl)methyl]-1H-1,3,4a,8a-tetraza-cyclopentanaphthalene-5-carboxylic acid] | 21 | 9.01 | 0.51
CCCCc1nc2c(=O)n3n(c(=O)c2n1Cc1ccc(-c2ccccc2-c2nnn[nH]2)cc1)C1(CO)CCC3CC1 [Compound No. 222, 2-n-butyl-5,8-ethano-8-hydroxymethyl-5,6,7,8-tetrahydro-1-[{2'-(1H-tetrazol-5-yl)biphenyl-4-yl}methyl]-1H-1,3,4a,8a-tetraza-cyclopentanaphthalene-4,9-dione] | 3 |  | 0.56
CCCCc1nc2c(=O)n3n(c(=O)c2n1Cc1ccc(-c2ccccc2-c2nn[nH]n2)cc1)CC(C)C(C)C3 (stereo not shown) [Compound No. 51, 2-n-butyl-6,7-dimethyl-5,6,7,8-tetrahydro-1-[(2'-(1H-tetrazol-5-yl)biphenyl-4-yl)methyl]-1H-1,3,4a,8a-tetraza-cyclopentanaphthalene-4,9-dione] | 4.6 | 9.04 | 0.65
CCCCc1nc2c(=O)n3n(c(=O)c2n1Cc1ccc(-c2ccccc2-c2nn[nH]n2)cc1)CC=CC3 [Compound No. 71, 2-n-butyl-5,8-dihydro-1-[(2'-(1H-tetrazol-5-yl)biphenyl-4-yl)methyl]-1H-1,3,4a,8a-tetraza-cyclopentanaphthalene-4,9-dione] | 7 | 9.09 | 

The remaining molecules from weak to strong by IC50 [1], led by results:

IC50 [1] [nM] | SMILES | Inhibition of rabbit aorta constriction pA2 (test 3) [2] | ED50 [3] [mg/kg]
32 | CCCc1nc2c(n1Cc1ccc(-c3ccccc3-c3nn[nH]n3)cc1)C(=O)N1CCCCN1C2 [Compound No. 366, 2-n-propyl-5,6,7,8-tetrahydro-1-[{2'-(1H-tetrazol-5-yl)biphenyl-4-yl}methyl]-1H,4H-1,3,4a,8a-tetraza-cyclopentanaphthalene-9-one] | 9.32 | 
32 | CCCCc1nc2c(=O)n3n(c(=O)c2n1Cc1ccc(-c2ccccc2-c2nn[nH]n2)cc1)C1CCC3(C(=O)NC(C)(C)C)CC1 [Compound No. 236, 2-n-butyl-4,9-dioxo-5,8-ethano-5,6,7,8-tetrahydro-1-[{2'-(1H-tetrazol-5-yl)biphenyl-4-yl}methyl]-1H-1,3,4a,8a-tetraza-cyclopentanaphthalene-5-carboxy-N-t-butylamide] |  | 0.11
8.2 | CCCCc1nc2c(=O)n3n(c(=O)c2n1Cc1ccc(-c2ccccc2-c2nnn[nH]2)cc1)C(C)CCC3C(=O)NC(C)(C)C (stereo not shown) [Compound No. 208, 2-n-butyl-4,9-dioxo-8-methyl-5,6,7,8-tetrahydro-1-[{2'-(1H-tetrazol-5-yl)biphenyl-4-yl}methyl]-1H-1,3,4a,8a-tetraza-cyclopentanaphthalene-5-carboxy-N-t-butylamide] |  | 0.12
4 | CCCc1nc2c(=O)n3n(c(=O)c2n1Cc1ccc(-c2ccccc2-c2nn[nH]n2)cc1)C(C(=O)OCC)CCC3C (stereo not shown) [Compound No. 138, ethyl 4,9-dioxo-5-methyl-2-n-propyl-5,6,7,8-tetrahydro-1-[(2'-(1H-tetrazol-5-yl)biphenyl-4-yl)methyl]-1H-1,3,4a,8a-tetraza-cyclopentanaphthalene-8-carboxylate] |  | 0.096
3.9 | CCCc1nc2c(n1Cc1ccc(-c3ccccc3-c3nn[nH]n3)cc1)C(=O)N1C(C)CCC(C)N1C2 (stereo not shown) [Compound No. 430, 5,8-dimethyl-2-n-propyl-5,6,7,8-tetrahydro-1-[{2'-(1H-tetrazol-5-yl)biphenyl-4-yl}methyl]-1H,4H-1,3,4a,8a-tetraza-cyclopentanaphthalene-9-one] | 10.04 | 
3.8 | CCCCc1nc2c(=O)n3n(c(=O)c2n1Cc1ccc(-c2ccccc2-c2nn[nH]n2)cc1)C1C=CC3CC1 (stereo not shown) [compound 106, 2-n-butyl-5,8-dihydro-5,8-ethano-1-[(2'-(1H-tetrazol-5-yl)biphenyl-4-yl)methyl]-1H-1,3,4a,8a-tetraza-cyclopentanaphthalene-4,9-dione] | 9.2 | 
2.6 | CCCCc1nc2c(=O)n3n(c(=O)c2n1Cc1ccc(-c2ccccc2-c2nnn[nH]2)cc1)C1CCC3(CO)CC1 [Compound No. 220, 2-n-butyl-5,8-ethano-5-hydroxymethyl-5,6,7,8-tetrahydro-1-[{2'-(1H-tetrazol-5-yl)biphenyl-4-yl}methyl]-1H-1,3,4a,8a-tetraza-cyclopentanaphthalene-4,9-dione] | 9.93 | 0.27
1.9 | CCCc1nc2c(=O)n3n(c(=O)c2n1Cc1ccc(-c2ccccc2-c2nn[nH]n2)cc1)C(C)CCC3C(=O)OCC (stereo not shown) [Compound No. 139, ethyl 4,9-dioxo-8-methyl-2-n-propyl-5,6,7,8-tetrahydro-1-[(2'-(1H-tetrazol-5-yl)biphenyl-4-yl)methyl]-1H-1,3,4a,8a-tetraza-cyclopentanaphthalene-5-carboxylate] | 10.63 | 0.038
1.9 | CCCc1nc2c(=O)n3n(c(=O)c2n1Cc1ccc(-c2ccccc2-c2nn[nH]n2)cc1)C(C)CCC3C(=O)N(CC)CC (stereo not shown) [Compound No. 203, 4,9-dioxo-8-methyl-2-n-propyl-5,6,7,8-tetrahydro-1-[{2'-(1H-tetrazol-5-yl)biphenyl-4-yl}methyl]-1H-1,3,4a,8a-tetraza-cyclopentanaphthalene-5-carboxy-N,N-diethylamide] | 10.0 | 
1.5 | CCCc1nc2c(=O)n3n(c(=O)c2n1Cc1ccc(-c2ccccc2-c2nn[nH]n2)cc1)C1C=CC3CC1 (stereo not shown) [Compound No. 105, 5,8-dihydro-5,8-ethano-2-n-propyl-1-[(2'-(1H-tetrazol-5-yl)biphenyl-4-yl)methyl]-1H-1,3,4a,8a-tetraza-cyclopentanaphthalene-4,9-dione] | 9.42 | 0.1
1.3 | CCCCc1nc2c(=O)n3n(c(=O)c2n1Cc1ccc(-c2ccccc2-c2nn[nH]n2)cc1)C(C)CCC3C(=O)OCC (stereo not shown) [compound 169, ethyl 2-n-butyl-4,9-dioxo-8-methyl-5,6,7,8-tetrahydro-1-[{2'-(1H-tetrazol-5-yl)biphenyl-4-yl}methyl]-1H-1,3,4a,8a-tetraza-cyclopentanaphthalene-5-carboxylate] | 10.19 | 
